Laboratory results as given in patent US7153876B2, “Malonamid and malonamic ester derivatives with antithrombotic activity, their preparation, and their use” (Sanofi-Aventis Deutschland GmbH, priority 2000, dated 2006).
pKi: −log10 of the molar value.

Target: T1, human factor VIIa and TF (factor VIIa/TF) (Homo sapiens, UniProt P08709)
T1 construct: human factor VIIa and TF (5 nM and 10 nM, respective final concentration)
Experiment: Factor VIIa (FVIIa) chromogenic assay
Assay type: biochemical
Conditions: inhibition constant towards factor VIIa/TF activity; chromogenic substrate S-2288 500 μM; 25° C.; 15 minute preincubation; factor VIIa 5 nM, TF 10 nM
Description: The ability of compounds of formula I to inhibit factor VIIa or other enzymes like factor Xa, thrombin, plasmin, or trypsin can be assessed by determining the concentration of the compound of formula I that inhibits enzyme activity by 50%, i.e., the IC50 value, which is related to the inhibition constant Ki. Purified enzymes are used in chromogenic assays. The concentration of inhibitor that causes a 50% decrease in the rate of substrate hydrolysis is determined by linear regression after plotting the relative rates of hydrolysis (compared to the uninhibited control) versus the log of the concentration of the compound of formula I. For calculating the inhibition constant Ki, the IC50 value is corrected for competition with substrate using the formula Ki=IC50/[1+(substrate concentration/Km)] wherein Km is the Michaelis-Menten constant (Chen and Prusoff, Biochem. Pharmacol. 22 (1973), 3099-3108; I. H. Segal, Enzyme Kinetics, 1975, John Wiley & Sons, New York, 100–125; which are incorporated herein by reference). Factor VIIa (FVIIa) Assay:
The inhibitory activity (expressed as inhibition constant Ki (FVIIa)) of compounds of formula I towards factor VIIa/TF activity was determined using a chromogenic assay essentially as described previously (J. A. Ostrem et al., Biochemistry 37 (1998) 1053–1059, which is incorporated herein by reference). Kinetic assays were conducted at 25° C. in half-area microtiter plates (Costar Corp., Cambridge, Mass.) using a kinetic plate reader (Molecular Devices Spectramax 250). A typical assay consisted of 25 μl human factor VIIa and TF (5 nM and 10 nM, respective final concentration) combined with 40 μl of inhibitor dilutions in 10% DMSO/TBS-PEG buffer (50 mM Tris, 15 mM NaCl, 5 mM CaCl2, 0.05% PEG 8000, pH 8.15). Following a 15 minute preincubation period, the assay was initiated by the addition of 35 μl of the chromogenic substrate S-2288 (D-IIe-Pro-Arg-p-nitroanilide, Pharmacia Hepar Inc., 500 μM final concentration).

T1 sequence (P08709 61-212 limits assumed): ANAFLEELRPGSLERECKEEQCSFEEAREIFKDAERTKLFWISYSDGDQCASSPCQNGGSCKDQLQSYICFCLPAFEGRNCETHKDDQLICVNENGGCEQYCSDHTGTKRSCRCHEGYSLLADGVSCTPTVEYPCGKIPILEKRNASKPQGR
T1 sequence (P08709 213-466 limits assumed): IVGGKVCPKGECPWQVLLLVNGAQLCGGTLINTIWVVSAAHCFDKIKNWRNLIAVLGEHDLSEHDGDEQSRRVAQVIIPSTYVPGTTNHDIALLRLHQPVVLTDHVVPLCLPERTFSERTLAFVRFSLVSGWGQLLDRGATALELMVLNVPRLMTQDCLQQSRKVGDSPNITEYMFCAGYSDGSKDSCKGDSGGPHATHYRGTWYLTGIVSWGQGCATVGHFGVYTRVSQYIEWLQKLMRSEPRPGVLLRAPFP
T1 sequence (P13726 33-295 partner): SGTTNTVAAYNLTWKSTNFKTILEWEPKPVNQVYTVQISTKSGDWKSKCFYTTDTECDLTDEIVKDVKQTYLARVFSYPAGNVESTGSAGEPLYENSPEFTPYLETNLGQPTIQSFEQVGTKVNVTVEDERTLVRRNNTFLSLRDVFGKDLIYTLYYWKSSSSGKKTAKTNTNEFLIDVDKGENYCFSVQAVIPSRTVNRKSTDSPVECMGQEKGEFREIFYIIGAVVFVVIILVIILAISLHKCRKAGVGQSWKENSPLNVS

pKi	Compound
4.85	N=C(N)c1ccc(NC(=O)C(C(=O)OCc2ccccc2)c2ccccc2)cc1 (stereo not drawn) [Example 1, N-(4-Carbamimidoyl-Phenyl)-2-Phenyl-Malonamic Acid Benzyl Ester]
6.70	CC(NC(=O)C(C(=O)Nc1ccc(C(=N)N)cc1)c1ccccc1)c1ccc([N+](=O)[O-])cc1 (stereo not drawn) [Example 3, N-(4-Carbamimidoyl-Phenyl)-N′-[1-(4-Nitro-Phenyl)-Ethyl]-2-Phenyl-Malonamide, Formiate]
5.42	N#CC(NC(=O)C(C(=O)Nc1ccc(C(=N)N)cc1)c1ccccc1)c1ccccc1 (stereo not drawn) [Example 6]
5.15	COc1ccc2c(c1)C[C@@H](NC(=O)C(C(=O)Nc1ccc(C(=N)N)cc1)c1ccccc1)CC2 (stereo partly drawn) [Example 8]
6.52	C[C@H](NC(=O)C(C(=O)Nc1ccc(C(=N)N)cc1)c1ccccc1)c1ccc(Br)cc1 (stereo partly drawn) [Example 12]
5.18	N=C(N)c1ccc(NC(=O)C(C(=O)NCc2c(Cl)cccc2Oc2ccccc2)c2ccccc2)cc1 (stereo not drawn) [Example 17]
6.80	C[C@H](NC(=O)C(C(=O)Nc1ccc(C(=N)N)cc1)c1ccccc1)c1cccc(Br)c1 (stereo partly drawn) [Example 23]
6.42	COc1ccc([C@H](C)NC(=O)C(C(=O)Nc2ccc(C(=N)N)cc2)c2ccccc2)cc1 (stereo partly drawn) [Example 26]
5.22	N=C(N)c1ccc(NC(=O)C(C(=O)NCc2ccc(-c3csnn3)cc2)c2ccccc2)cc1 (stereo not drawn) [Example 28]
5.52	N=C(N)c1ccc(NC(=O)C(C(=O)NCc2cccc([N+](=O)[O-])c2)c2ccccc2)cc1 (stereo not drawn) [Example 35]
4.76	COc1ccc(CNC(=O)C(C(=O)Nc2ccc(C(=N)N)cc2)c2ccccc2)cc1OC (stereo not drawn) [Example 38]
5.55	N=C(N)c1ccc(NC(=O)C(CCc2ccccc2)C(=O)NCc2ccccc2)cc1 (stereo not drawn) [Example 40]
4.77	C[C@H](NC(=O)C(CCc1ccccc1)C(=O)Nc1ccc(C(=N)N)cc1)c1ccc2ccccc2c1 (stereo partly drawn) [Example 42]
6.91	C[C@H](NC(=O)C(C(=O)Nc1ccc(C(=N)N)cc1)c1ccccc1)c1ccc2ccccc2c1 (stereo partly drawn) [Example 43]
6.42	C[C@H](NC(=O)CC(=O)Nc1ccc(C(=N)N)cc1)c1ccc2ccccc2c1 [Example 44]
